In test [1] the target is T1, human plasma kallikrein (Homo sapiens, UniProt P03952).
T1 construct: purchased Sigma (St. Louis, Mo.)
The test is described as follows: Inhibition of human plasma kallikrein, Ki. The test is classed as biochemical.
Description: (§1) After 5 min. at 37° C., 15 μl of 2 mM GPK-AMC was added and the change in fluorescence (as above) was monitored. […] After 5 min. incubation at 37° C., 25 μl of 20 mM GPK-AMC was added and the change in fluorescence monitored. […] After 5 min. at 37° C. 15 μl of 20 mM PFR-AMC was added and the change in fluorescence monitored.
(§2) After 30 min. incubation at 37° C., 25 μl of 20 mM GPK-AMC was added and the change in fluorescence monitored. […] After 30 min. at 37° C., 5 μl of 20 mM PFR-AMC was added and the change in fluorescence monitored.

The target in test [2] is T2, human neutrophil elastase (Homo sapiens, UniProt P08246).
T2 sequence (P08246 30-267): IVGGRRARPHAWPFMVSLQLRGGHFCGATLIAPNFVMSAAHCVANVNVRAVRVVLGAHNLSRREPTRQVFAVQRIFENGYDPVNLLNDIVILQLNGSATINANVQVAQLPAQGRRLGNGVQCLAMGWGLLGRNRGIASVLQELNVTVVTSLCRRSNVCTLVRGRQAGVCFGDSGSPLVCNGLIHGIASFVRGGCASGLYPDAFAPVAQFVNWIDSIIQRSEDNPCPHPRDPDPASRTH
The test is described as follows: Inhibition of human neutrophil elastase, Ki (Dixon plots). The test is classed as biochemical. Conditions: Table 3; Human Neutrophil Elastase (19 nM). As to the method:
[…] Ki values were determined from Dixon plots of the form 1/V versus performed at two different substrate concentrations (Dixon et al., 1979).

The target in test [3] is T3, human urokinase (Homo sapiens, UniProt P00749).
T3 construct: purchased Sigma
The test is described as follows: Inhibition of human urokinase, Ki. The note with it: Table 3, GGR-AMC (0.7 mM). Type of test: biochemical.
Description: (§3) After 5 min. at 37° C., 30 ul of 20 mM LGR-AMC (Sigma) was added and the change in fluorescence monitored. […] After 5 min. at 37° C., 35 ul of 20 mM GGR-AMC (Sigma) was added and the change in fluorescence monitored.

Test [4] deals with T4, human tissue kallikrein (Homo sapiens, UniProt P06870).
T4 construct: purchased Bayer, Germany
In words: Inhibition of human tissue kallikrein, Ki. Conditions: Table 3; Human Tissue Kallikrein (0.35 nM); PFR-AMC (10 μM). Type of test: biochemical.
Description: After 5 min. at 37° C., 5 ul of 2 mM PFR-AMC was added achieving 10 uM final and the change in fluorescence monitored. The Km for PFR-AMC with human tissue kallikrein under the conditions employed was 5.7 uM.
After 5 min. at 37° C., 5 μl of 2 mM PFR-AMC was added and the change in fluorescence monitored.
After 5 min. at 37° C., 5 ul of 2 mM PFR-AMC was added achieving 10 uM final concentration and the change in fluorescence monitored.

The target in test [5] is T5, human factor Xa (Homo sapiens, UniProt P00742).
T5 construct: purchased American Diagnostica, Inc, Greenwich, Conn
In words: Inhibition of human factor Xa. The test is classed as biochemical. Conditions: Table 3; factor Xa (0.87 nM); LGR-AMC (0.6 mM).
Description: as §3

Test [6] addresses T6, human plasmin (Homo sapiens, UniProt P00747).
T6 construct: purchased Sigma (St. Louis, Mo.)
The test is described as follows: Inhibition of human plasmin, Ki. Type of test: biochemical. Conditions: Table 3; Human Plasmin (50 pM); GPK-AMC (0.5 mM).
Description: as §1, §2

The target in test [7] is Bovine chymotrypsin (Bos taurus, UniProt P00766). The test is described as follows: Inhibition of chymotrypsin, Ki. Type of test: biochemical.
Test [8] relates to human CF bronchial epithelial cells. The test is described as follows: Short circuit current (Isc) in cultured human cystic fibrosis bronchial epithelial cells. Type of test: cell-based.
Description: HBE cells were isolated from CF patient lung transplant tissue and grown in collagen coated flasks for one week. The cells were then passaged and seeded onto collagen coated Costar Transwell filters (0.33 cm2) and grown in DMEM/F12 media supplemented with 2% Ultroser G. Cells were grown at an air liquid interface and used 2 to 4 weeks after seeding:
Cells on the Transwell filters were mounted in modified Costar Ussing chambers and studied under Isc conditions. […] Isc was recorded for 100 minutes and then the apical bath fluid was exchanged with fresh buffer. Trypsin (100 BAEE units/mL) was added to the apical side and Isc recorded for 10 minutes. Amiloride (10 uM) was then added to the apical side and Isc was recorded for a further 10 minutes.
HBE cells were isolated from CF patient lung transplant tissue and grown in collagen coated flasks for one week. The cells were then passaged and seeded onto collagen coated Costar Transwell filters (0.33 cm^2) and grown in DMEM/F12 media supplemented with 2% Ultroser G. Cells were grown at an air liquid interface and used 2 to 4 weeks after seeding.
Cells on the Transwell filters were mounted in modified Costar Ussing chambers and studied under Isc conditions. […] Isc was recorded for 90 minutes and then amiloride (10 uM) was added and Isc was recorded for a further 10 minutes. The apical bath fluid was then exchanged with fresh buffer, and Isc was recorded for a further 15 minutes. Trypsin (1 uM) was added to the apical side and Isc recorded for 15 minutes. Amiloride (10 uM) was then added to the apical side and Isc was recorded for a further 10 minutes.
Test [9] concerns guinea pig trachea. The test is described as follows: Tracheal mucus velocity (TMV) in the guinea-pig. Type of test: in vivo. As to the method:
The aim of this study was to investigate the effect of the Kunitz family serine protease inhibitor Bikunin on guinea-pig tracheal mucus velocity 1.5 hours post treatment. This agent was delivered into the cephalad trachea by topical instillation. TMV was monitored 1.5 hours later for 60 mins. The procedure used in this Example is described in Newton et al. in “Cila, Mucus and Mucociliary Interactions,” Ed., Baum, G. L. et al., Marcel Dekker, New York, 1998; Newton et al., Ped. Pulm. S17, Abs. 364, 1998). […]
TMV was monitored using a lead collimated miniature Beta particle detector probe arranged to detect the radioactivity emitted from an injected aliquot of ^32P-labelled Saccharomyces cerevisiae as it was transported on the tracheal mucociliary layer of an anaesthetized guinea pig (Newton and Hall 1998) FIG. 16(a) illustrates the arrangement of the syringe and beta probe. FIG. 16(b) illustrates the counts detected by the probe as the ^32P-labelled S. cerevisiae is transported along the tracheal mucociliary layer. […]
The aim of this comparative study was to investigate the effect of hypertonic saline (14.4%×5 min) on guinea-pig tracheal mucus velocity. […] TMV was monitored immediately and every 15 minutes for 30 minutes. […]

In test [10] the test system is guinea pig trachea. Conditions: 10 mM, 20 minute aerosol; 15 minutes after; n=8 (Newton et al 1998); cited from earlier work.
Test [11] concerns diseased patients. Conditions: inhalation; diseased patients (Robinson et al 1997; App et al 1990); cited from earlier work.
Test [12] relates to A6 cells. Conditions: exposure of the apical membrane (Vallet et al 1997; Chraibi et al 1998), cited from earlier work.
The test system of test [13] is human bronchial epithelial cell (HBE). In words: Short circuit current (Isc) in cultured human bronchial epithelial (HBE) cells, Ussing chamber. The test is classed as cell-based. The note with it: for sodium current: 0.5 to 5 ug/mL (0.5, 1.5 and 5 ug/mL), 90 minute period.
Description: Tertiary HBE cell monolayer grown to confluence were mounted in modified Ussing chambers, immersed in Krebs buffer (KBR) solution and bubbled with 95% O2/5% CO2 warmed to 37 C.
Cells were left to equilibrate for 20 minutes before calibrating for background noise and fluid resistance. Transepithelial potential difference was then clamped to 0 mV using a WPI EVC 4000 voltage clamp. Ag/AgCl electrodes were used to monitor Isc. […] Once a response to amiloride was seen, it was washed out with KBR solution. […] 90 minutes following agent treatment, amiloride (10 uM) was added. Once the current was stable forskolin (10 uM) and then bumetanide (100 uM) was added.
Tertiary HBE cell monolayers grown to confluence were mounted in modified Ussing chambers, immersed in Krebs buffer (KBR) solution and bubbled with 95% O2/5% CO2 warmed to 37 C.
Cells were left to equilibrate for 20 minutes before calibrating for background noise and fluid resistance. Transepithelial potential difference was then clamped to 0 mV using a WPI EVC 4000 voltage clamp. Ag/AgCI electrodes were used to monitor Isc. […] Once a response to amiloride was seen, it was washed out with KBR solution. […] 90 minutes following agent treatment, amiloride (10 uM) was added.
In test [14] the test system is allergic sheep. Conditions: cited from earlier work.

Where two headings read alike, the source gives them in different places.

Results on five compounds are retold here after US20070086956A1, “Method for accelerating the rate of mucociliary clearance” (BAYER AKTIENGESELLSCHAFT, priority 1998, published 2007).

T1 sequence (P03952 391-638 limits assumed): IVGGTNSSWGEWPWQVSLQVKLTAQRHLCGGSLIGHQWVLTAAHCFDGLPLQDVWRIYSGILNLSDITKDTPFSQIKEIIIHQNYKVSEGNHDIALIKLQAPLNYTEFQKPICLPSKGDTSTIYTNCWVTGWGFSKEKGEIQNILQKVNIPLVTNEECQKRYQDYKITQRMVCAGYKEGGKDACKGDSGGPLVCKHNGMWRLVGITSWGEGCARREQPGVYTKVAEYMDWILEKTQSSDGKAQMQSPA
T1 sequence (P03952 20-390 partner limits assumed): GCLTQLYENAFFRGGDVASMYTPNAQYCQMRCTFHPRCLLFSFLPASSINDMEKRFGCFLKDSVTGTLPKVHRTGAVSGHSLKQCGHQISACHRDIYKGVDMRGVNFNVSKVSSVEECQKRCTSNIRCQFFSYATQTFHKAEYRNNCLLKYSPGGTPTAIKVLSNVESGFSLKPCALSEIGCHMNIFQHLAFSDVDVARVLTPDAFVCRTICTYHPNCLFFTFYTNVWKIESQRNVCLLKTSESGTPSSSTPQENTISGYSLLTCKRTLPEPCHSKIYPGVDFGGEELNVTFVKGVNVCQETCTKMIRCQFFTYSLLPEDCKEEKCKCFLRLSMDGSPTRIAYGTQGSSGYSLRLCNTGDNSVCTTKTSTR
T5 sequence (P00742 235-488 limits assumed): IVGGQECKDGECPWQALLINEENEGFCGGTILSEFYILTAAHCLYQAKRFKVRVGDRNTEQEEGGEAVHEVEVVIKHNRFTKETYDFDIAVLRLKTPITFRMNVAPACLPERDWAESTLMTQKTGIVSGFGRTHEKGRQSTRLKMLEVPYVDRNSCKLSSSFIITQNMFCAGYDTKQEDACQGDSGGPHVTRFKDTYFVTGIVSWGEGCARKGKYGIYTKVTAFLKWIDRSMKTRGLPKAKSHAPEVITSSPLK
T5 sequence (P00742 41-179 partner limits assumed): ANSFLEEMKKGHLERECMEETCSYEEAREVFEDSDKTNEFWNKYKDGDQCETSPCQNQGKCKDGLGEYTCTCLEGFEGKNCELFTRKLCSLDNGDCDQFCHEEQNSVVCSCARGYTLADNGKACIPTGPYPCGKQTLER
T6 sequence (P00747 581-810 limits assumed): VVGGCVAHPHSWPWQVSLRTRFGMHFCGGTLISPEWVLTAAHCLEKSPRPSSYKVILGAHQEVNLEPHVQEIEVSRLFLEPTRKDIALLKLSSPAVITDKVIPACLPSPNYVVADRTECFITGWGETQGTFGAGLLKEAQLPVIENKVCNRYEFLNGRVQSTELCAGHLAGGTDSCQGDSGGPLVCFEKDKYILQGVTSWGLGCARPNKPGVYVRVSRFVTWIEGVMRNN
T6 sequence (P00747 97-580 partner limits assumed): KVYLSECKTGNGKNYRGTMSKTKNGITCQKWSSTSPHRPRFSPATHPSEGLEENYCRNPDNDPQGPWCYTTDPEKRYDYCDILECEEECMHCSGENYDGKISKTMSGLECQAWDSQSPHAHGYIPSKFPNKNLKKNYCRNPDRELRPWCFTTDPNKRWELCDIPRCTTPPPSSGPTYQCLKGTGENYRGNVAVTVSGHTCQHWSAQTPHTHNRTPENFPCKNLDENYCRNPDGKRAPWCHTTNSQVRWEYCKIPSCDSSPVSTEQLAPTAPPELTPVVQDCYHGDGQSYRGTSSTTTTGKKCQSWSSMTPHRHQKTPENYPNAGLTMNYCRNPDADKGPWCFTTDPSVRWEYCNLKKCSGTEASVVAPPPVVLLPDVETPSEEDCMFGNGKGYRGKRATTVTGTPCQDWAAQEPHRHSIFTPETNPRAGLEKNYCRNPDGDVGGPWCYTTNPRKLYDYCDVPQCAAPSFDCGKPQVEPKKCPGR
T4 sequence (P06870 25-262): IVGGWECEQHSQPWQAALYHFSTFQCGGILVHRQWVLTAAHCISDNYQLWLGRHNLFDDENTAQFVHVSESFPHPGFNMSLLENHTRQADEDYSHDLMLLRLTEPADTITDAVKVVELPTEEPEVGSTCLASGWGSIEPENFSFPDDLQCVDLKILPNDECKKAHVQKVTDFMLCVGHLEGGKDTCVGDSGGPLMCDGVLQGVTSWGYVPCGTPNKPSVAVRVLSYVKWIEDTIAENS

With `CC[C@H](C)[C@@H]1NC(=O)[C@H](Cc2ccccc2)NC(=O)[C@H](CC(N)=O)NC(=O)[C@H](CC(N)=O)NC(=O)[C@@H]2CSSC[C@@H]3NC(=O)[C@H](C)NC(=O)[C@H](CCC(=O)O)NC(=O)[C@H](CCC(=O)O)NC(=O)[C@H](CO)NC(=O)[C@H](CCCNC(=N)N)NC(=O)[C@H](Cc4ccc(O)cc4)NC(=O)[C@H](CO)NC(=O)[C@H](CC(N)=O)NC(=O)[C@H](CCCCN)NC(=O)[C@H](CC(N)=O)NC(=O)CNC(=O)[C@H](CCCNC(=N)N)NC(=O)[C@H](CSSC[C@H](NC(=O)[C@@H]4CCCN4C(=O)CNC(=O)[C@H]([C@@H](C)O)NC(=O)[C@H](C(C)C)NC(=O)[C@H](C)NC(=O)[C@H](CC(N)=O)NC(=O)[C@H](C)NC(=O)[C@H]([C@@H](C)O)NC(=O)[C@@H](NC(=O)[C@H](Cc4ccc(O)cc4)NC(=O)[C@H](CCC(=O)O)NC(=O)[C@H](CCC(=O)O)NC(=O)[C@@H](N)Cc4ccc(O)cc4)CSSC[C@@H](C(=O)N[C@@H](Cc4ccccc4)C(=O)N[C@@H](CCCNC(=N)N)C(=O)N[C@@H](CCC(N)=O)C(=O)O)NC(=O)[C@H](CCCNC(=N)N)NC(=O)[C@H](CC(C)C)NC(=O)[C@H](CCSC)NC3=O)C(=O)N[C@@H](CCCNC(=N)N)C(=O)N[C@@H](C)C(=O)N[C@@H](CO)C(=O)N[C@@H](Cc3ccccc3)C(=O)N3CCC[C@H]3C(=O)N[C@@H](CCCNC(=N)N)C(=O)N[C@@H](Cc3c[nH]c4ccccc34)C(=O)N[C@@H](Cc3ccc(O)cc3)C(=O)N[C@@H](Cc3ccccc3)C(=O)N[C@@H](CC(=O)O)C(=O)N[C@@H](C(C)C)C(=O)N[C@@H](CCC(=O)O)C(=O)N[C@@H](CCCNC(=N)N)C(=O)N[C@@H](CC(N)=O)C(=O)N[C@@H](CO)C(=O)N2)NC(=O)CNC(=O)CNC(=O)[C@H](Cc2ccc(O)cc2)NC1=O` [Bikunin (102-159)], the inhibitory constant (Ki) in test [1] (Table 3, Human Plasma Kallikrein (2.5 nM), PFR-AMC (0.3 mM)) stood at 0.3 nM; in test [1] (Table 4A, Human Plasma Kallikrein (2.5 nM)), 0.3 nM; in [1] (Table 4B, Human Plasma Kallikrein ([…] nM)) it was 0.7 nM; in test [2], 323 nM; in [3], 11000 nM; in test [4], 0.13 nM. For the same compound, the Ki in [5] was 274 nM; in test [6] it was 1.8 nM; in test [7] (Table 3, Chymotrypsin (5 nM), AAPF-pNA (0.08 mM)), 0.24 nM; in test [7] (Table 4A, Bovine chymotrypsin (5 nM)), 0.2 nM.
Turning to `N=C(N)NC(=O)c1nc(Cl)c(N)nc1N` [amiloride, reference compound], the Isc result in test [8] (10 uM, apical, after trypsin) is on record as “inhibited the majority of the current”. Besides, the TMV entry in test [9] (10 mM x 20 mins aerosol, 15 minutes after aerosol, FIG. 19) was “statistically significant increase in TMV”; in test [10], 8.1±0.3 mm.min^−1. In addition, in [11], the MCC result is listed as “significantly increase MCC”.
Aprotinin: the Isc entry was “decreases sodium current” in test [8] (20 ug/mL, 90 minutes after apical application); “inhibited Isc” in [8] (20 ug/mL, 90 minutes after apical application, listed as aprotinin); “inhibited Isc” in [8] (1 mg/mL in PBS, over a 100 minute period, FIG. 21). Besides, the “transepithelial Na+ transport” value is given as “reduce transepithelial Na^+ transport” in [12] and “reduced transepithelial Na^+ transport” in [12] (listed as aprotinin). Moreover, the “sodium short circuit current” value in test [13] (5 ug/mL, FIG. 20) is on record as “decrease sodium short circuit current”.
As for “Des Pro2-Ser10-Arg15-Asp24-Thr26-Glu31-Asn41-Glu53-Aprotinin [Aprotinin double mutein]”, the sodium current entry in [13] (FIG. 20) was “dose dependently inhibited sodium current”; in test [13] (FIG. 20, listed as aprotinin double mutein), “decrease sodium short circuit current”. The TMV result in test [9] (10 ug, relative to HBSS, 1.5 to 2.5 hours following administration, FIG. 26) is listed as “increased TMV”.
Consider “α1-PI: serpin-family serine protease inhibitor alpha(1)-protease inhibitor”, for which the “antigen-induced reduction in TMV” value in test [14] (10 mg given 30 min before or 1 h after antigen challenge, 6 h after challenge) was “attenuated antigen-induced reduction in TMV”. Also, in test [14] (administered on its own (no antigen challenge), over a 6 h period), the “baseline TMV” value is recorded as “no effect on baseline TMV”. Moreover, the “antigen-induced fall in TMV” value in [14] (given 6 h after antigen challenge, at 24 h after challenge) was “significant reversal of the antigen-induced fall in TMV”. For the same compound, the “effect on Na+ Isc” value in [13] (50 ug.ml−1, normal HBE cells, further study) is “without a significant effect”.
